Reference: PubChem BioAssay (NCI)
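Cells were grown in 96-well plates and exposed to each compound for 48 hours at five concentrations; endpoints were interpolated linearly between bracketing concentrations, or set to the highest concentration if not reached. The concentration for 50% growth inhibition is given as GI50. TGI: total growth inhibition.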

Legend:
Test in all cases: NCI anticancer screen, dose series, 48 h
KM12 colon = tested on: KM12 colon
SF-295 CNS = tested on: SF-295 CNS
M14 melanoma = tested on: M14 melanoma
HOP-92 NSCLC = tested on: HOP-92 NSCLC
T-47D breast = tested on: T-47D breast
HCT-116 colon = tested on: HCT-116 colon
A498 renal = tested on: A498 renal
OVCAR-4 ovarian = tested on: OVCAR-4 ovarian
SK-MEL-5 melanoma = tested on: SK-MEL-5 melanoma
HS 578T breast = tested on: HS 578T breast
NCI/ADR-RES ovarian = tested on: NCI/ADR-RES ovarian
HCT-15 colon = tested on: HCT-15 colon
CCRF-CEM leukemia = tested on: CCRF-CEM leukemia
UO-31 renal = tested on: UO-31 renal
MCF7 breast = tested on: MCF7 breast
HL-60(TB) leukemia = tested on: HL-60(TB) leukemia
PC-3 prostate = tested on: PC-3 prostate
K-562 leukemia = tested on: K-562 leukemia
SK-MEL-28 melanoma = tested on: SK-MEL-28 melanoma
HCC-2998 colon = tested on: HCC-2998 colon
MALME-3M melanoma = tested on: MALME-3M melanoma
CAKI-1 renal = tested on: CAKI-1 renal
SF-539 CNS = tested on: SF-539 CNS
HOP-62 NSCLC = tested on: HOP-62 NSCLC
MDA-MB-231 breast = tested on: MDA-MB-231 breast
UACC-62 melanoma = tested on: UACC-62 melanoma
NCI-H226 lung = tested on: NCI-H226 lung
SF-268 CNS = tested on: SF-268 CNS
SK-OV-3 ovarian = tested on: SK-OV-3 ovarian
U251 CNS = tested on: U251 CNS
NCI-H522 lung = tested on: NCI-H522 lung
OVCAR-3 ovarian = tested on: OVCAR-3 ovarian
A549 NSCLC = tested on: A549 NSCLC
SNB-19 CNS = tested on: SNB-19 CNS
HT29 colon = tested on: HT29 colon
MOLT-4 leukemia = tested on: MOLT-4 leukemia
NCI-H460 lung = tested on: NCI-H460 lung
DU-145 prostate = tested on: DU-145 prostate
TK-10 renal = tested on: TK-10 renal
OVCAR-5 ovarian = tested on: OVCAR-5 ovarian
SR leukemia = tested on: SR leukemia
SNB-75 CNS = tested on: SNB-75 CNS
COLO 205 colon = tested on: COLO 205 colon
EKVX NSCLC = tested on: EKVX NSCLC
RXF 393 renal = tested on: RXF 393 renal
SN12C renal = tested on: SN12C renal
IGROV1 ovarian = tested on: IGROV1 ovarian
ACHN renal = tested on: ACHN renal
BT-549 breast = tested on: BT-549 breast
786-0 renal = tested on: 786-0 renal
SK-MEL-2 melanoma = tested on: SK-MEL-2 melanoma
RPMI-8226 leukemia = tested on: RPMI-8226 leukemia
UACC-257 melanoma = tested on: UACC-257 melanoma
MDA-MB-435 = tested on: MDA-MB-435
SW-620 colon = tested on: SW-620 colon

COC(=O)c1cccc(NC2=C(Cl)C(=O)c3nc(C)ccc3C2=O)c1
GI50 (KM12 colon): 13.3 µM | TGI (KM12 colon): 29.4 µM | GI50 (SF-295 CNS): 15.8 µM | TGI (SF-295 CNS): 29.9 µM | GI50 (M14 melanoma): 1840 nM | TGI (M14 melanoma): 3.42 µM | GI50 (HOP-92 NSCLC): 1920 nM | TGI (HOP-92 NSCLC): 3.95 µM | GI50 (T-47D breast): 2040 nM | TGI (T-47D breast): 5.02 µM | GI50 (HCT-116 colon): 1600 nM | TGI (HCT-116 colon): 3.32 µM | GI50 (A498 renal): 12 µM | TGI (A498 renal): 24.6 µM | GI50 (OVCAR-4 ovarian): 1420 nM | TGI (OVCAR-4 ovarian): 2890 nM | GI50 (SK-MEL-5 melanoma): 1800 nM | TGI (SK-MEL-5 melanoma): 3.34 µM | GI50 (HS 578T breast): 2460 nM | TGI (HS 578T breast): 6.26 µM | GI50 (NCI/ADR-RES ovarian): 2250 nM | TGI (NCI/ADR-RES ovarian): 6.28 µM | GI50 (HCT-15 colon): 1540 nM | TGI (HCT-15 colon): 3.33 µM | GI50 (CCRF-CEM leukemia): 2010 nM | TGI (CCRF-CEM leukemia): 5.48 µM | GI50 (UO-31 renal): 1440 nM | TGI (UO-31 renal): 2790 nM | GI50 (MCF7 breast): 1890 nM | TGI (MCF7 breast): 4.61 µM | GI50 (HL-60(TB) leukemia): 1530 nM | TGI (HL-60(TB) leukemia): 3.64 µM | GI50 (PC-3 prostate): 2800 nM | TGI (PC-3 prostate): 10.3 µM | GI50 (K-562 leukemia): 976 nM | TGI (K-562 leukemia): 3.94 µM | GI50 (SK-MEL-28 melanoma): 1960 nM | TGI (SK-MEL-28 melanoma): 3.71 µM | GI50 (HCC-2998 colon): 2210 nM | TGI (HCC-2998 colon): 4.8 µM | GI50 (MALME-3M melanoma): 1950 nM | TGI (MALME-3M melanoma): 3.76 µM | GI50 (CAKI-1 renal): 1710 nM | TGI (CAKI-1 renal): 3.28 µM | GI50 (SF-539 CNS): 1750 nM | TGI (SF-539 CNS): 3.27 µM | GI50 (HOP-62 NSCLC): 15.1 µM | TGI (HOP-62 NSCLC): 29.6 µM | GI50 (MDA-MB-231 breast): 2150 nM | TGI (MDA-MB-231 breast): 5.08 µM | GI50 (UACC-62 melanoma): 2620 nM | TGI (UACC-62 melanoma): 8.1 µM | GI50 (NCI-H226 lung): 2020 nM | TGI (NCI-H226 lung): 4.39 µM | GI50 (SF-268 CNS): 2760 nM | TGI (SF-268 CNS): 9.59 µM | GI50 (SK-OV-3 ovarian): 12.5 µM | TGI (SK-OV-3 ovarian): 25.2 µM | GI50 (U251 CNS): 3.27 µM | TGI (U251 CNS): 11.8 µM | GI50 (NCI-H522 lung): 1890 nM | TGI (NCI-H522 lung): 4.46 µM | GI50 (OVCAR-3 ovarian): 1590 nM | TGI (OVCAR-3 ovarian): 3.03 µM | GI50 (A549 NSCLC): 18.1 µM | TGI (A549 NSCLC): 37.9 µM | GI50 (SNB-19 CNS): 10.8 µM | TGI (SNB-19 CNS): > 100 µM | GI50 (HT29 colon): 2320 nM | TGI (HT29 colon): 6.09 µM | GI50 (MOLT-4 leukemia): 2530 nM | TGI (MOLT-4 leukemia): 5.68 µM | GI50 (NCI-H460 lung): 18.5 µM | TGI (NCI-H460 lung): 41.5 µM | GI50 (DU-145 prostate): 1860 nM | TGI (DU-145 prostate): 3.39 µM | GI50 (TK-10 renal): 1780 nM | TGI (TK-10 renal): 3.19 µM | GI50 (OVCAR-5 ovarian): 3.14 µM | TGI (OVCAR-5 ovarian): 14.7 µM | GI50 (SR leukemia): 1830 nM | TGI (SR leukemia): 4.62 µM | GI50 (SNB-75 CNS): 13.2 µM | TGI (SNB-75 CNS): 26.2 µM | GI50 (COLO 205 colon): 1770 nM | TGI (COLO 205 colon): 3.76 µM | GI50 (EKVX NSCLC): 1770 nM | TGI (EKVX NSCLC): 3.6 µM | GI50 (RXF 393 renal): 1570 nM | TGI (RXF 393 renal): 2940 nM | GI50 (SN12C renal): 2130 nM | TGI (SN12C renal): 5.4 µM | GI50 (IGROV1 ovarian): 1980 nM | TGI (IGROV1 ovarian): 3.89 µM | GI50 (ACHN renal): 1780 nM | TGI (ACHN renal): 3.4 µM | GI50 (BT-549 breast): 1680 nM | TGI (BT-549 breast): 3.09 µM | GI50 (786-0 renal): 1860 nM | TGI (786-0 renal): 3.66 µM | GI50 (SK-MEL-2 melanoma): 2270 nM | TGI (SK-MEL-2 melanoma): 6.48 µM | GI50 (RPMI-8226 leukemia): 2140 nM | TGI (RPMI-8226 leukemia): 6 µM | GI50 (UACC-257 melanoma): 1570 nM | TGI (UACC-257 melanoma): 3000 nM | GI50 (MDA-MB-435): 2040 nM | TGI (MDA-MB-435): 4.29 µM | GI50 (SW-620 colon): 1970 nM | TGI (SW-620 colon): 4.03 µM
